Results: US20260055078A1, “COMPOUND FUNCTIONING AS SMARCA2/4 INHIBITOR AND USE THEREOF” (Gan & Lee Pharmaceuticals Co., Ltd., priority 2022, published 2026)

Experiments:
[1] = system: A549 cell line; experiment: Cell proliferation assay (CCK-8), A549; assay type: cell-based; settings: Homo sapiens, A549, 96 h; Table 1; 4 days incubation with compound; read-out: A549 cell line CCK8 IC50
Procedure: (§1) The antiproliferative activity of the compounds on the cells was determined by CCK-8 kit (C0039, Biotronik). A549 (CCL-185™, ATCC) and MCF-7 (HTB-22™, ATCC) cells were incubated with F-12K medium (30-2004, ATCC) containing 10% FBS (10099141C, Gibco) and DMEM medium (11995065, Gibco) containing 10% FBS, respectively, at 37° C. with 5% CO2 until entering the logarithmic growth phase. In 96-well plates, 2800 cells (A549) or 1000 cells (MCF-7) was added in a volume of 100 μL, the blank control group was 100 μL of medium. After one day of incubation at 37° C., 5% CO2, 100 μL of compounds of different concentrations were added (final concentration of […], 3-fold dilution, a total of 9 concentrations), and the control group was added to 100 μL of medium and continued to be incubation for 4 days (A549) or 7 days (MCF-7). According to the manufacturer's instructions, 20 μL of CCK-8 solution was added. Finally, the absorbance at 450 nm was measured using a microplate reader (SPARK m1000 pro, TECAN) after incubation at 37° C. for 2 h (A549) or 4 h (MCF-7).
(§2) The inhibition rate of the compounds on the cells at different concentrations was calculated based on the OD values of each well, and the inhibition rate data were plotted in GraphPad Prism 8.0 software to calculate the IC50 values.

[2] = molecular target: T1, SMARCA4^BD protein (Homo sapiens, UniProt P51532); experiment: Fluorescence polarization (FP) detection, SMARCA4 bromodomain; assay type: binding; settings: probe 10 nM, SMARCA4^BD protein 120 nM, 2 h room temperature
T1 construct: His6 (leader mhhhhhhgslvpr\gs, with thrombin-type site lvpr\gs) (N); made in house
Procedure: (§3) • 1. Perform a fluorescence polarization assay on with the target protein, which has been expressed and purified from prokaryotic cells to a purity of >90%.
(§4) • 2. The fluorescence polarization assay was conducted in a 384-well plate (3820, Corning) protected from light, with an excitation wavelength of 485 nm and an emission wavelength of 520 nm. Fluorescent probe was used in the experiment, and the buffer solution was 25 mM Bis-Tris, 0.01% Triton X-100, at pH 7.5. The final concentration of DMSO after the addition of the compound was less than 1%. The final detection volume per well was 125 μl, containing 50 μl of the fluorescent probe (final concentration 10 nM), 50 μl of SMARCA2^BD protein (final concentration 50 nM) or 50 μl of SMARCA4^BD protein (final concentration 120 nM), and 25 μl of the compound at various concentrations (final concentration ranging from 0 to 100 µM with a 3-fold dilution, a total of 11 concentrations). A control group (probe+protein), a probe control group (probe only), and a blank control group (buffer only) were set up. The fluorescence values were read by an ELISA reader r (SPARK m1000 pro, TECAN) after incubation for 2 h at room temperature on a shaker. The polarization value mP is calculated based on the fluorescence values in parallel and perpendicular directions of each well, and then the inhibition rate is calculated based on the mP value:
(§5) The inhibition rate data was plotted in GraphPad Prism 8.0 software and the IC50 value was calculated.

[3] = system: MCF-7 cell line; experiment: Cell proliferation assay (CCK-8), MCF-7; assay type: cell-based; settings: Homo sapiens, MCF7, 168 h; Table 1; 7 days incubation with compound; read-out: MCF-7 cell line CCK8 IC50
Procedure: as §1, §2

[4] = molecular target: T2, SMARCA2^BD protein (Homo sapiens, UniProt P51531, I1395R); experiment: Fluorescence polarization (FP) detection, SMARCA2 bromodomain; assay type: binding; settings: probe 10 nM, SMARCA2^BD protein 50 nM, 2 h room temperature
T2 construct: His-SMARCA2^BD(S1377-Q1486); His6 (leader mhhhhhhgslvpr\gs, with thrombin-type site lvpr\gs) (N); made in house
Procedure: as §3, §4, §5

[5] = system: SW1573 cell line; experiment: Cell proliferation assay (CCK-8), SW1573; assay type: cell-based; settings: Homo sapiens, SW1573, 168 h; Table 2; 7 days incubation with compound; read-out: SW1573 cell line CCK8 IC50
Procedure: (§6) The antiproliferative activity of the compounds on the cells was determined by CCK-8 kit (C0039, Biotronik). Hela (CCL-2™, ATCC) and SW1573 (CRL-2170™, ATCC) cells were incubated with DMEM medium (11995065, Gibco) containing 10% FBS (10099141C, Gibco) at 37° C. with 5% CO2 until entering the logarithmic growth phase. In 96-well plates, 2500 cells (Hela) or 800 cells (SW1573) were added in a volume of 100 μL, the blank control group was 100 μL of medium, and after one day of incubation at 37° C., 5% CO2, 100 μL of compounds of different concentrations were added (final concentration of […], 3-fold dilution, a total of 9 concentrations), and the control group was added to 100 μL of medium and continued to incubate for 3 days (Hela) or 7 days (SW1573). Then 20 μL of CCK-8 solution were added. Finally, the absorbance at 450 nm was measured using a microplate reader (SPARK m1000 pro, TECAN) after incubation at 37° C. for 1.5 h (Hela) or 2.5 h (SW1573).
as §2

[6] = system: Hela cell line; experiment: Cell proliferation assay (CCK-8), Hela; assay type: cell-based; settings: Homo sapiens, 72 h, Table 2, 3 days incubation with compound, read-out: Hela cell line CCK8 IC50
Procedure: as §6, §2

[7] = aryl ketone linked to tertiary amines; limited intracellular exposure time; literature; cited from earlier work
[8] = system: 148 cancer cells; settings: background, literature; cited from earlier work

T1 sequence (P51532 1448-1575): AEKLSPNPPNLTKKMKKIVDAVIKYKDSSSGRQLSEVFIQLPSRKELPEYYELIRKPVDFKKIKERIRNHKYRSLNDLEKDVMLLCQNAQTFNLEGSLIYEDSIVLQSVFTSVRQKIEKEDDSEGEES
T2 sequence (P51531 1377-1486 isoform P51531-2 I1395R): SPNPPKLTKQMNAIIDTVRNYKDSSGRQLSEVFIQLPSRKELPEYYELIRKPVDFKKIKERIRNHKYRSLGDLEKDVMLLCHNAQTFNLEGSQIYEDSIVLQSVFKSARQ

Structure (SMILES) | IC50 [1] | IC50 ([2]; Table 1) | IC50 [3] | IC50 ([4]; Table 1) | IC50 ([2]; Table 2) | IC50 [5] | IC50 ([4]; Table 2) | IC50 [6] | chemical stability [7] | inhibitory activity in 148 cancer cells [8]
Nc1nnc(-c2ccccc2O)cc1C#CC1CCNCC1 [Compound 1c, 2-(6-amino-5-(piperidin-4-ylethynyl)pyridazin-3-yl)phenol] | 25.4 µM | 0.3 µM | 12 µM | 0.19 µM | – | – | – | – | – | –
Nc1nnc(-c2ccccc2O)cc1C#CC1CCNC1 (stereo not shown) [Compound 2c, 2-(6-Amino-5-(pyrrolidin-3-ylethynyl)pyridazin-3-yl)phenol] | 7.17 µM | 0.28 µM | 4.73 µM | 0.33 µM | – | – | – | – | – | –
Nc1nnc(-c2ccccc2O)cc1C#CC1CNC1 [Compound 3c, 2-(6-amino-5-(azetidinyl-3-ethylenylidene)pyridazin-3-yl)phenol] | 73.3 µM | 0.57 µM | 31 µM | 0.48 µM | – | – | – | – | – | –
Nc1nnc(-c2ccccc2O)cc1C#CC1CC2(CNC2)C1 [Compound 4c, 2-(5-((2-Azaspiro[3.3]hept-6-yl)ethynyl)-6-aminopyridazin-3-yl)phenol] | 15.7 µM | 0.15 µM | 12.4 µM | 0.19 µM | – | – | – | – | – | –
Nc1nnc(-c2ccccc2O)cc1C#CC1CCC2(CC1)CNC2 [Compound 5c, 2-(5-((2-Azaspiro[3.5]nonan-7-yl)ethynyl)-6-aminopyridazin-3-yl)phenol] | 15.4 µM | 0.13 µM | 7.65 µM | 0.13 µM | – | – | – | – | – | –
Nc1nnc(-c2ccccc2O)cc1C#CC1CCC2(CCNCC2)CC1 [Compound 6c, 2-(5-((3-Azaspiro[5.5]undecan-9-yl)ethynyl)-6-aminopyridazin-3-yl)phenol] | 13.6 µM | 0.15 µM | 3.7 µM | 0.2 µM | – | – | – | – | – | –
Nc1nnc(-c2ccccc2O)cc1C#CC1CC2(CCNCC2)C1 [Compound 10c, 2-(5-((7-Azaspiro[3.5]nonan-2-yl)ethynyl)-6-aminopyridazin-3-yl)phenol] | 14.6 µM | 0.14 µM | 7.03 µM | 0.19 µM | – | – | – | – | – | –
COC1(C#Cc2cc(-c3ccccc3O)nnc2N)CCC(N2CCCC2)CC1 (stereo not shown) [Compound 15, 2-(6-amino-5-((1-methoxy-4-(pyrrolidin-1-yl)cyclohexyl)ethynyl)pyridazin-3-yl)phenol] | – | – | – | – | 0.21 µM | 13.1 µM | 0.19 µM | 25.3 µM | – | –
COc1ccc(C#Cc2cc(-c3ccccc3O)nnc2N)cc1 [Compound 17, 2-(6-amino-5-((4-methoxyphenyl)ethynyl)pyridazin-3-yl)phenol] | – | – | – | – | > 3.7 µM | 99 µM | 1.1 µM | 66.3 µM | – | –
CN(C)[C@H]1[C@@H]2CN(c3cc(-c4ccccc4O)nnc3N)C[C@@H]21 [Compound 20, 2-(6-amino-5-((1R,5S,6s)-6-(dimethylamino)-3-azabicyclo[3.1.0]hex-3-yl)pyridazin-3-yl)phenol] | – | – | – | – | 0.12 µM | 91.2 µM | 0.17 µM | 39 µM | – | –
CC(=O)N[C@H]1[C@@H]2CN(c3cc(-c4ccccc4O)nnc3N)C[C@@H]21 [Compound 21, N-((1R,5S,6s)-3-(3-amino-6-(2-hydroxyphenyl)pyridazin-4-yl)-3-azabicyclo[3.1.0]hexan-6-yl)acetamide] | – | – | – | – | 0.25 µM | > 100 µM | 0.13 µM | 68.4 µM | – | –
CC(=O)N1CCN(c2cc(-c3ccccc3O)nnc2N)CC1 [Control compound, reference compound] | > 100 µM | 0.53 µM | 73.9 µM | 0.7 µM | – | > 100 µM | – | > 100 µM | – | –
O=C(/C=C/N1C[C@H]2C[C@@H]1CN2c1ccccn1)c1ccccc1O [PFI-3] | – | – | – | – | – | – | – | – | poor chemical stability | did not show significant inhibitory activity
